Reference: ChEMBL document CHEMBL1201862, “PubChem BioAssay data set” (2004)
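Five compound concentrations were applied to cells in 96-well plates for 48 hours; endpoints were derived by simple linear interpolation of the resulting dose-response curve. GI50 marks 50% less growth.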 Active and inactive are the calls of the source. Rule as the data show it: active = GI50 up to about 1.1 µM and inactive = higher.

Key:
Test in all cases: NCI-60 cell line screen, 48 h
786-0 = test system: 786-0
A498 = test system: A498
A549 = test system: A549
ACHN = test system: ACHN
CCRF-CEM = test system: CCRF-CEM
COLO 205 = test system: COLO 205
DLD-1 = test system: DLD-1
DMS-114 = test system: DMS-114
DMS-273 = test system: DMS-273
EKVX = test system: EKVX
HCC 2998 = test system: HCC 2998
HCT-116 = test system: HCT-116
HCT-15 = test system: HCT-15
HL-60 = test system: HL-60
HOP-18 = test system: HOP-18
HOP-62 = test system: HOP-62
HOP-92 = test system: HOP-92
HT-29 = test system: HT-29
IGROV-1 = test system: IGROV-1
K562 = test system: K562
KM-20L2 = test system: KM-20L2
KM12 = test system: KM12
LOX IMVI = test system: LOX IMVI
LXFL 529 = test system: LXFL 529
M14 = test system: M14
M19-MEL = test system: M19-MEL
MOLT-4 = test system: MOLT-4
Malme-3M = test system: Malme-3M
NCI-H23 = test system: NCI-H23
NCI-H460 = test system: NCI-H460
OVCAR-3 = test system: OVCAR-3
OVCAR-4 = test system: OVCAR-4
OVCAR-5 = test system: OVCAR-5
OVCAR-8 = test system: OVCAR-8
RPMI-8226 = test system: RPMI-8226
RXF 393 = test system: RXF 393
SF-268 = test system: SF-268
SF-295 = test system: SF-295
SF-539 = test system: SF-539
SK-MEL-28 = test system: SK-MEL-28
SK-MEL-5 = test system: SK-MEL-5
SK-OV-3 = test system: SK-OV-3
SN12C = test system: SN12C
SNB-19 = test system: SNB-19
SNB-75 = test system: SNB-75
SNB-78 = test system: SNB-78
SR = test system: SR
SW-620 = test system: SW-620
TK-10 = test system: TK-10
U-251 = test system: U-251
UACC-257 = test system: UACC-257
UACC-62 = test system: UACC-62
UO-31 = test system: UO-31
XF498 = test system: XF498
CAKI-1 = test system: CAKI-1
MCF7 = test system: MCF7
NCI-H226 = test system: NCI-H226
NCI-H522 = test system: NCI-H522
NCI/ADR-RES = test system: NCI/ADR-RES
SK-MEL-2 = test system: SK-MEL-2
RXF 631 = test system: RXF 631

## O=C(O)C1=C(C(=O)Nc2ccccc2)C2C=CC1C2 (stereo not drawn)
786-0
  GI50: > 100 µM (inactive)
A498
  GI50: > 100 µM (inactive)
A549
  GI50: > 100 µM (inactive)
ACHN
  GI50: > 100 µM (inactive)
CCRF-CEM
  GI50: > 100 µM (inactive)
COLO 205
  GI50: > 100 µM (inactive)
DLD-1
  GI50: > 100 µM (inactive)
DMS-114
  GI50: > 100 µM (inactive)
DMS-273
  GI50: > 100 µM (inactive)
EKVX
  GI50: > 100 µM (inactive)
HCC 2998
  GI50: > 100 µM (inactive)
HCT-116
  GI50: > 100 µM (inactive)
HCT-15
  GI50: > 100 µM
HL-60
  GI50: > 100 µM (inactive)
HOP-18
  GI50: > 100 µM (inactive)
HOP-62
  GI50: > 100 µM (inactive)
HOP-92
  GI50: > 100 µM (inactive)
HT-29
  GI50: > 100 µM (inactive)
IGROV-1
  GI50: > 100 µM (inactive)
K562
  GI50: > 100 µM (inactive)
KM-20L2
  GI50: > 100 µM (inactive)
KM12
  GI50: > 100 µM (inactive)
LOX IMVI
  GI50: > 100 µM (inactive)
LXFL 529
  GI50: > 100 µM (inactive)
M14
  GI50: > 100 µM (inactive)
M19-MEL
  GI50: > 100 µM (inactive)
MOLT-4
  GI50: > 100 µM (inactive)
Malme-3M
  GI50: > 100 µM (inactive)
NCI-H23
  GI50: > 100 µM (inactive)
NCI-H460
  GI50: > 100 µM (inactive)
OVCAR-3
  GI50: > 100 µM (inactive)
OVCAR-4
  GI50: > 100 µM (inactive)
OVCAR-5
  GI50: > 100 µM (inactive)
OVCAR-8
  GI50: > 100 µM (inactive)
RPMI-8226
  GI50: > 100 µM (inactive)
RXF 393
  GI50: > 100 µM (inactive)
SF-268
  GI50: > 100 µM (inactive)
SF-295
  GI50: > 100 µM (inactive)
SF-539
  GI50: > 100 µM (inactive)
SK-MEL-28
  GI50: > 100 µM (inactive)
SK-MEL-5
  GI50: > 100 µM (inactive)
SK-OV-3
  GI50: > 100 µM (inactive)
SN12C
  GI50: > 100 µM (inactive)
SNB-19
  GI50: > 100 µM (inactive)
SNB-75
  GI50: > 100 µM (inactive)
SNB-78
  GI50: > 100 µM (inactive)
SR
  GI50: > 100 µM (inactive)
SW-620
  GI50: > 100 µM (inactive)
TK-10
  GI50: > 100 µM (inactive)
U-251
  GI50: > 100 µM (inactive)
UACC-257
  GI50: > 100 µM (inactive)
UACC-62
  GI50: > 100 µM (inactive)
UO-31
  GI50: > 100 µM (inactive)
XF498
  GI50: > 100 µM (inactive)

## O=C(NC(Cc1ccc(I)cc1)C(=O)O)c1ccc(Br)cc1 (stereo not drawn)
A498
  GI50: > 100 µM (inactive)
A549
  GI50: > 100 µM (inactive)
CAKI-1
  GI50: > 100 µM (inactive)
CCRF-CEM
  GI50: > 66.2 µM (inactive)
COLO 205
  GI50: > 100 µM (inactive)
DLD-1
  GI50: > 100 µM (inactive)
DMS-114
  GI50: 66.2 µM (inactive)
DMS-273
  GI50: > 100 µM (inactive)
EKVX
  GI50: 17.2 µM (inactive)
HCC 2998
  GI50: 25.9 µM (inactive)
HCT-116
  GI50: > 100 µM (inactive)
HCT-15
  GI50: > 100 µM
HL-60
  GI50: > 100 µM (inactive)
HOP-18
  GI50: > 100 µM (inactive)
HOP-62
  GI50: > 100 µM (inactive)
HOP-92
  GI50: 76.7 µM (inactive)
HT-29
  GI50: > 100 µM (inactive)
IGROV-1
  GI50: > 100 µM (inactive)
K562
  GI50: > 73.1 µM (inactive)
KM-20L2
  GI50: > 100 µM (inactive)
KM12
  GI50: > 100 µM (inactive)
LOX IMVI
  GI50: > 100 µM (inactive)
M19-MEL
  GI50: > 82.2 µM (inactive)
MCF7
  GI50: > 60.4 µM (inactive)
MOLT-4
  GI50: > 72.9 µM (inactive)
Malme-3M
  GI50: 80.9 µM (inactive)
NCI-H226
  GI50: > 100 µM (inactive)
NCI-H23
  GI50: > 100 µM (inactive)
NCI-H460
  GI50: 98.6 µM (inactive)
NCI-H522
  GI50: 64.9 µM (inactive)
NCI/ADR-RES
  GI50: > 100 µM (inactive)
OVCAR-3
  GI50: 89.7 µM (inactive)
OVCAR-4
  GI50: > 85.5 µM (inactive)
OVCAR-5
  GI50: > 100 µM (inactive)
OVCAR-8
  GI50: > 100 µM (inactive)
RPMI-8226
  GI50: 46.9 µM (inactive)
RXF 393
  GI50: > 100 µM (inactive)
SF-268
  GI50: > 100 µM (inactive)
SF-295
  GI50: > 100 µM (inactive)
SF-539
  GI50: > 100 µM (inactive)
SK-MEL-28
  GI50: > 100 µM (inactive)
SK-MEL-2
  GI50: > 100 µM (inactive)
SK-MEL-5
  GI50: > 67.1 µM (inactive)
SK-OV-3
  GI50: > 100 µM (inactive)
SN12C
  GI50: > 100 µM (inactive)
SNB-19
  GI50: > 86.7 µM (inactive)
SNB-75
  GI50: 30.1 µM (inactive)
SNB-78
  GI50: > 100 µM (inactive)
SW-620
  GI50: > 100 µM (inactive)
U-251
  GI50: 65.8 µM (inactive)
UACC-257
  GI50: > 100 µM (inactive)
UACC-62
  GI50: > 67.3 µM (inactive)
UO-31
  GI50: > 100 µM (inactive)
XF498
  GI50: > 77.6 µM (inactive)

## OCCN(CCO)c1cccc(N(CCO)CCO)c1
786-0
  GI50: > 100 µM (inactive)
A498
  GI50: > 100 µM (inactive)
A549
  GI50: > 100 µM (inactive)
ACHN
  GI50: > 100 µM (inactive)
CAKI-1
  GI50: > 100 µM (inactive)
CCRF-CEM
  GI50: > 100 µM (inactive)
COLO 205
  GI50: > 100 µM (inactive)
DLD-1
  GI50: > 100 µM (inactive)
DMS-114
  GI50: > 100 µM (inactive)
DMS-273
  GI50: > 100 µM (inactive)
EKVX
  GI50: > 100 µM (inactive)
HCT-116
  GI50: > 100 µM (inactive)
HCT-15
  GI50: > 100 µM
HL-60
  GI50: > 100 µM (inactive)
HOP-62
  GI50: > 100 µM (inactive)
HOP-92
  GI50: > 100 µM (inactive)
K562
  GI50: > 100 µM (inactive)
KM-20L2
  GI50: 38.5 µM (inactive)
KM12
  GI50: > 100 µM (inactive)
LOX IMVI
  GI50: > 100 µM (inactive)
LXFL 529
  GI50: > 100 µM (inactive)
M14
  GI50: > 100 µM (inactive)
M19-MEL
  GI50: > 100 µM (inactive)
MOLT-4
  GI50: > 100 µM (inactive)
NCI-H23
  GI50: > 100 µM (inactive)
NCI-H460
  GI50: > 100 µM (inactive)
NCI-H522
  GI50: > 100 µM (inactive)
OVCAR-3
  GI50: > 100 µM (inactive)
OVCAR-4
  GI50: > 100 µM (inactive)
OVCAR-8
  GI50: > 100 µM (inactive)
RPMI-8226
  GI50: > 100 µM (inactive)
RXF 393
  GI50: > 100 µM (inactive)
RXF 631
  GI50: > 100 µM (inactive)
SF-268
  GI50: > 100 µM (inactive)
SF-295
  GI50: > 100 µM (inactive)
SK-MEL-28
  GI50: > 100 µM (inactive)
SK-MEL-2
  GI50: > 100 µM (inactive)
SK-MEL-5
  GI50: > 100 µM (inactive)
SK-OV-3
  GI50: > 100 µM (inactive)
SNB-19
  GI50: 39.2 µM (inactive)
SNB-75
  GI50: > 100 µM (inactive)
SNB-78
  GI50: > 100 µM (inactive)
SR
  GI50: > 100 µM (inactive)
SW-620
  GI50: > 100 µM (inactive)
TK-10
  GI50: > 100 µM (inactive)
U-251
  GI50: > 100 µM (inactive)
UACC-257
  GI50: > 100 µM (inactive)
UACC-62
  GI50: 72.8 µM (inactive)
UO-31
  GI50: 28.6 µM (inactive)
XF498
  GI50: > 100 µM (inactive)
